From ChEMBL document CHEMBL3886543, “Quinoline derivatives useful as CB-1 inverse agonists” (2016)

Assays:
[1] = biological target: T1, Cannabinoid receptor 1 (Homo sapiens, UniProt P21554); assay: Membranes were purchased from Perkin Elmer.
[2] = biological target: T2, Cannabinoid receptor 2 (Homo sapiens, UniProt P34972); assay: Membranes were prepared as described in FELDER, C. C., et al., Molecular Pharmacology, 1992, pp 838-845, Vol. 42.
[3] = biological target: T2, Cannabinoid receptor 2; assay: (§1) cAMP Assay: The following mixtures and buffer solutions were prepared: (a) Buffer 1: HBSS (Mediatech Cat#21-023-CV) with 5 mM HEPES (1 mM stock, Gibco BRL Cat#15630-056) and 0.1% BSA (7.5% stock, Invitrogen Cat#15260-037); (b) Buffer 2: 0.5 mM IBMX (200 mM stock in DMSO, Sigma 15879) in Buffer 1; (c) 1 uM cAMP Standard (50 uM stock, Perkin Elmer Cat# AD0262) diluted in Buffer 2 and serially diluted in Buffer 2, 12 doses at 1/2 dilutions resulting in a dose range of 1 uM to 0.5 nM; (d) d2 labelled cAMP (CisBio HTRF Detection Kit Cat #62AM4PEB reconstituted with 6 ml dH2O) diluted 1/20 with lysis buffer (CisBio HTRF Detection Kit Cat #62AM4PEB); (e) anti-cAMP (CisBio HTRF Detection Kit Cat #62AM4PEB reconstituted with 5 ml dH2O) diluted 1/20 with lysis buffer (CisBio HTRF Detection Kit Cat #62AM4PEB); and (f) Forskolin (Sigma Cat# F6886, 10 mM in DMSO) diluted first in DMSO to 1 mM and then to 1.5 uM in Buffer 2.; assay type: functional
[4] = biological target: T1, Cannabinoid receptor 1; assay: as §1; assay type: functional

T2 sequence (P34972 whole entry): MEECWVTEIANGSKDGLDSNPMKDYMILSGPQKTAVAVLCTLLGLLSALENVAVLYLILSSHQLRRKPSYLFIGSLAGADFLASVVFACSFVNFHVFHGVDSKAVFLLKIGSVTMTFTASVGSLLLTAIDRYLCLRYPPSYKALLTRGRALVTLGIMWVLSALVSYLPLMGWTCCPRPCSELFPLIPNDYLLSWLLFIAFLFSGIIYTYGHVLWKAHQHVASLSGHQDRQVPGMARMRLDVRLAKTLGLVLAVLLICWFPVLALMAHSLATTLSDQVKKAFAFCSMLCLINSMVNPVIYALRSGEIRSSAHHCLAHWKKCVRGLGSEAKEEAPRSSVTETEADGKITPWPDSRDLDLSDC
T1 sequence (P21554 whole entry): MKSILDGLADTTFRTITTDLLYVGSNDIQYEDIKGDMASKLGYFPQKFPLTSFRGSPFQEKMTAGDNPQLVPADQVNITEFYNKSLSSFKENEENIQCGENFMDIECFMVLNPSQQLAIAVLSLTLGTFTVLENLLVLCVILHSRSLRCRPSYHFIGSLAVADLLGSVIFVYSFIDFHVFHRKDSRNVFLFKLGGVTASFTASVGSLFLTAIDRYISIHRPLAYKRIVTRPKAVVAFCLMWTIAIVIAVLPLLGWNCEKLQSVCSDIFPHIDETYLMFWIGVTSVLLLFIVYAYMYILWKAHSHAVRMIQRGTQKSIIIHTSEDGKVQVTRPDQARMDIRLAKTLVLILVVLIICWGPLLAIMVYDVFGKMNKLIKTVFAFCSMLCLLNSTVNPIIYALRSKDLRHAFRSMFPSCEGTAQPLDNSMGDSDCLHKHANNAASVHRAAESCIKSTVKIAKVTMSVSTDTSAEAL

| SMILES | EC50 [1] [nM] | EC50 [2] [nM] | EC50 [3] [nM] | EC50 [4] [nM] |
| --- | --- | --- | --- | --- |
| OC(c1ccc(Cl)cc1)(c1ccsc1)c1ccc2nccc(/C=C/c3ccccc3)c2c1 (centres undefined) | 223 | – | – | – |
| O=c1cc(/C=C/c2ccccc2)c2cc(C(c3ccc(Cl)cc3)c3ccc(Cl)cc3)ccc2[nH]1 | 35.8 | – | – | – |
| Cn1c(=O)cc(CCc2cccc(Cl)c2)c2cc(C(c3ccc(Cl)cc3)c3nccs3)ccc21 (centres undefined) | > 2500 | – | – | – |
| O=c1cc(NC2CCN(S(=O)(=O)C(F)(F)F)CC2)c2cc(C(c3ccc(Cl)cc3)c3nccs3)ccc2[nH]1 (centres undefined) | 4.4 | – | – | – |
| Clc1ccc(C(c2ccc3nccc(/C=C/c4ccccc4)c3c2)c2nccs2)cc1 (centres undefined) | 55.1 | > 5000 | – | – |
| O=c1cc(CCc2cccc(Cl)c2)c2cc(C(O)(c3ccc(Cl)cc3)c3nccs3)ccc2[nH]1 (centres undefined) | > 2500 | – | – | – |
| O=c1cc(/C=C/c2ccc(C(F)(F)F)cc2)c2cc(C(c3ccc(Cl)cc3)c3cccs3)ccc2[nH]1 (centres undefined) | 15.1 | > 5000 | – | – |
| O=c1cc(NC2CCN(S(=O)(=O)C(F)(F)F)CC2)c2cc(C(c3ccc(Cl)cc3)c3ccc(Cl)cc3)ccc2[nH]1 | 1.2 | 53 | – | – |
| OC(c1ccc(Cl)cc1)(c1ccc2nccc(/C=C/c3ccccc3)c2c1)c1cccs1 (centres undefined) | 101 | – | – | – |
| Clc1ccc(C(c2ccc3nccc(/C=C/c4ccccc4)c3c2)c2cccs2)cc1 (centres undefined) | 97.3 | – | – | – |
| N=C(N)N1CCC(Nc2cc(=O)[nH]c3ccc(C(c4ccc(Cl)cc4)c4ccc(Cl)cc4)cc23)CC1 | – | – | > 10000 | > 10000 |
| O=c1cc(CCc2cccc(Cl)c2)c2cc(C(c3ccc(Cl)cc3)c3nccs3)ccc2[nH]1 (centres undefined) | 332 | – | – | – |
| O=c1cc(/C=C/c2cccc(F)c2)c2cc(C(c3ccc(Cl)cc3)c3ccsc3)ccc2[nH]1 (centres undefined) | 22 | > 5000 | – | – |
| CCOC(=O)CCCOc1ccc(Nc2cc(=O)[nH]c3ccc(C(c4ccc(Cl)cc4)c4ccc(Cl)cc4)cc23)cc1 | – | – | > 10000 | 68 |
| O=c1cc(/C=C/c2ccc(C(F)(F)F)cc2)c2cc(C(c3ccc(Cl)cc3)c3nccs3)ccc2[nH]1 (centres undefined) | – | – | > 10000 | 397 |
| CC(C)(C)OC(=O)CN1CCC(Nc2cc(=O)[nH]c3ccc(C(c4ccc(Cl)cc4)c4ccc(Cl)cc4)cc23)CC1 | – | – | > 10000 | 5 |
| OC(c1ccc(Cl)cc1)(c1ccc(Cl)cc1)c1ccc2nccc(/C=C/c3ccccc3)c2c1 | 52.1 | – | – | – |
| Clc1ccc(C(c2ccc(Cl)cc2)c2ccc3nccc(/C=C/c4ccccc4)c3c2)cc1 | 4.1 | – | – | – |
| O=S(=O)(N1CCC(Nc2ccnc3c(NC4CCN(S(=O)(=O)C(F)(F)F)CC4)cc(C(c4ccc(Cl)cc4)c4ccc(Cl)cc4)cc23)CC1)C(F)(F)F | – | – | > 14000 | > 14000 |
| O=c1cc(Nc2ccc(Cc3ccccc3)cc2)c2cc(C(c3ccc(Cl)cc3)c3ccc(Cl)cc3)ccc2[nH]1 | – | – | > 10000 | 15 |
| O=c1cc(Nc2ccc(F)c(Cl)c2)c2cc(C(c3ccc(Cl)cc3)c3ccc(Cl)cc3)ccc2[nH]1 | – | – | > 10000 | 10 |
| COc1ccc(C(O)(c2ccc3nccc(/C=C/c4ccccc4)c3c2)c2nccs2)cc1 (centres undefined) | 1870 | – | – | – |
| O=c1cc(/C=C/c2ccccc2)c2cc(C(c3ccc(Cl)cc3)c3nccs3)ccc2[nH]1 (centres undefined) | 34.6 | – | – | – |
